Experimental data reported in patent US20070128217A1 (priority 2003, published 2007).

Legend:
[1] = system: antibodies in sera from SARS patients (sera 1a, 1b, 2, 6, 37, 62, London, SARS-yellow, SARS-green); type: binding, human; parameters: Binding of serum 6 to linear peptides of protein X1 of SARS-CoV Urbani / Binding of serum 37 to linear peptides of protein X1 of SARS-CoV Urbani / Binding of serum 6 to looped/cyclic peptide (PEPSCAN-ELISA) / Binding of serum 37 to looped/cyclic peptide (PEPSCAN-ELISA) / Binding of serum 37 to looped/cyclic peptides of protein X1 of SARS-CoV Urbani / Binding of serum 6 to linear peptides of protein X2 / Binding of serum 37 to linear peptides of protein X2 / Binding of serum 37 to looped/cyclic peptides of protein X2 of SARS-CoV Urbani / Binding of serum 6 to linear peptides of protein M of SARS-CoV Urbani / Binding of serum 37 to linear peptides of protein M of SARS-CoV Urbani / Binding of serum 6 to looped/cyclic peptides of protein M of SARS-CoV Urbani / Binding of serum 37 to looped/cyclic peptides of protein M of SARS-CoV Urbani / Binding of serum 6 to linear peptides of protein X3 of SARS-CoV Urbani / Binding of serum 37 to linear peptides of protein X3 of SARS-CoV Urbani / Binding of serum 37 to looped/cyclic peptides of protein X3 of SARS-CoV Urbani / Binding of serum 6 to linear peptides of protein X4 of SARS-CoV Urbani / Binding of serum 37 to linear peptides of protein X4 of SARS-CoV Urbani / Binding of serum 37 to looped/cyclic peptides of protein X4 of SARS-CoV Urbani / Binding of serum 6 to linear peptides of protein X5 of SARS-CoV Urbani / Binding of serum 37 to linear peptides of protein X5 of SARS-CoV Urbani / Binding of serum 37 to looped/cyclic peptides of protein X5 of SARS-CoV Urbani / Binding of serum 6 to linear peptides of protein N of SARS-CoV Urbani / Binding of serum 37 to linear peptides of protein N of SARS-CoV Urbani / Binding of serum 6 to linear peptide (PEPSCAN-ELISA) / Binding of serum 1a to looped/cyclic peptides of protein N of SARS-CoV Urbani / Binding of serum 1b to looped/cyclic peptides of protein N of SARS-CoV Urbani / Binding of serum 2 to looped/cyclic peptides of protein N of SARS-CoV Urbani / Binding of serum 6 to looped/cyclic peptides of protein N of SARS-CoV Urbani / Binding of serum 37 to looped/cyclic peptides of protein N of SARS-CoV Urbani / Binding of serum 62 to looped/cyclic peptides of protein N of SARS-CoV Urbani / Binding of serum London to looped/cyclic peptides of protein N of SARS-CoV Urbani / Binding of serum SARS-green to looped/cyclic peptides of protein N of SARS-CoV Urbani: unit not given here
[2] = system: control sera (pooled serum of ten healthy LUMC hospital workers; commercial negative donor pooled serum from the Dutch bloodbank); type: binding, human; parameters: Binding of Control serum LUMC to linear peptides / Binding of Control serum Blood-bank to linear peptides / Binding of Control serum LUMC to looped peptides / Binding of Control Serum Blood-Bank to Looped peptides / Binding of Control serum LUMC to linear peptides of the protein M of SARS-CoV Urbani / Binding of Control serum Blood-bank to linear peptides of the protein M of SARS-CoV Urbani / Binding of Control serum LUMC to looped peptides of the protein M of SARS-CoV Urbani / Binding of Control Serum Blood-Bank to Looped peptides of the protein M of SARS-CoV Urbani: unit not given here
[3] = system: rabbit serum obtained by immunizing a rabbit with the SARS-CoV strain Frankfurt 1; type: binding; parameters: Binding of a rabbit serum to linear peptides / Binding of a rabbit serum to looped peptides / Rabbit serum linear peptides / Rabbit serum looped peptides / Binding of a rabbit serum to linear peptides of protein N of SARS-CoV Urbani (Rabbit serum linear peptides) / Binding of a rabbit serum to looped/cyclic peptides of protein N of SARS-CoV Urbani (Rabbit serum looped peptides): unit not given here
[4] = system: recombinant human anti-SARS-CoV antibody 03-018; type: binding; parameters: Binding of antibody 03-018 to linear peptides of the N protein of SARS-CoV Urbani / Binding of antibody 03-018 to looped/cyclic peptides of the N protein of SARS-CoV Urbani: unit not given here

Sequence | Binding of serum 1a to linear peptide (PEPSCAN-ELISA) [1] | Binding of serum 1a to looped/cyclic peptides of protein N of SARS-CoV Urbani [1] | Binding of serum 1b to linear peptide (PEPSCAN-ELISA) [1] | Binding of serum 1b to looped/cyclic peptides of protein N of SARS-CoV Urbani [1] | Binding of serum 2 to linear peptide (PEPSCAN-ELISA) [1] | Binding of serum 2 to looped/cyclic peptides of protein N of SARS-CoV Urbani [1] | Binding of serum 6 to looped/cyclic peptides of protein N of SARS-CoV Urbani [1] | Binding of serum 37 to looped/cyclic peptides of protein N of SARS-CoV Urbani [1] | Binding of serum 62 to looped/cyclic peptides of protein N of SARS-CoV Urbani [1] | Binding of serum London to looped/cyclic peptides of protein N of SARS-CoV Urbani [1] | Binding of serum SARS-green to looped/cyclic peptides of protein N of SARS-CoV Urbani [1] | Binding of serum SARS-yellow to looped/cyclic peptides of protein N of SARS-CoV Urbani [1] | Binding of Control Serum Blood-Bank to Looped peptides [2] | Binding of Control serum Blood-bank to linear peptides [2] | Binding of Control serum LUMC to linear peptides [2] | Binding of Control serum LUMC to looped peptides [2] | Binding of a rabbit serum to linear peptides of protein N of SARS-CoV Urbani (Rabbit serum linear peptides) [3] | Binding of a rabbit serum to looped/cyclic peptides of protein N of SARS-CoV Urbani (Rabbit serum looped peptides) [3] | Binding of antibody 03-018 to linear peptides of the N protein of SARS-CoV Urbani [4] | Binding of antibody 03-018 to looped/cyclic peptides of the N protein of SARS-CoV Urbani [4] | further results
GQQQQGQTVTKKSAA | 0.3 | 0.2 | 0.1 | 0.1 | 0.3 | 0.3 | 0.1 | 0.4 | 0.4 | 0.3 | 0.1 | 0.1 | 0.5 | 0.9 | 0.9 | 0.5 | 0.2 | 0.1 | 0.1 | 0.2 | Binding of serum 6 to linear peptide (PEPSCAN-ELISA) [1]: 0.3; Binding of serum 37 to linear peptide (PEPSCAN-ELISA) [1]: 0.8; Binding of serum 62 to linear peptide (PEPSCAN-ELISA) [1]: 0.8; Binding of serum London to linear peptide (PEPSCAN-ELISA) [1]: 0.5; Binding of serum SARS-green to linear peptide (PEPSCAN-ELISA) [1]: 0.1; Binding of serum SARS-yellow to linear peptide (PEPSCAN-ELISA) [1]: 0.5
GQTVTKKSAAEASKK |  | 0.2 |  | 0.1 |  | 0.2 | 0.1 | 0.4 | 0.2 | 0.3 | 0.0 | 0.2 | 0.4 | 0.7 | 0.7 | 0.3 | 0.2 | 0.2 | 0.1 | 0.2 | Recognition of the peptide by sera of SARS-CoV infected individuals, and form (linear, looped/cyclic) in which it is recognized [1]: recognized in linear form
GSQASSRSSSRSRGN | 0.3 | 0.4 | 0.1 | 0.2 | 0.4 | 0.4 | 0.3 | 0.7 | 0.6 | 0.5 | 0.1 | 0.5 | 0.6 | 0.8 | 0.8 | 0.6 | 0.2 | 0.7 | 0.1 | 0.2 | Binding of serum 6 to linear peptide (PEPSCAN-ELISA) [1]: 0.4; Binding of serum 37 to linear peptide (PEPSCAN-ELISA) [1]: 0.7; Binding of serum 62 to linear peptide (PEPSCAN-ELISA) [1]: 0.6; Binding of serum London to linear peptide (PEPSCAN-ELISA) [1]: 0.6; Binding of serum SARS-green to linear peptide (PEPSCAN-ELISA) [1]: 0.3; Binding of serum SARS-yellow to linear peptide (PEPSCAN-ELISA) [1]: 0.7
